From US11542235B2, “Herbicidal 3-azaspiro[5.5] undecane-8, 10-dione compounds” (SYNGENTA PARTICIPATIONS AG, priority 2018, dated 2023)

test system: Lolium perenne (LOLPE); assay: Glasshouse herbicidal test, pre- and post-emergence, Lolium perenne; assay type: in vivo; settings: post-emergence, 250 g/h, evaluated after 13 days, five point scale
Experimental: (§1) Seeds of a variety of test species are sown in standard soil in pots (Lolium perenne (LOLPE), Setaria faberi (SETFA), Alopecurus myosuroides (ALOMY), Echinochloa crus-galli (ECHCG), Avena fatua (AVEFA)). After cultivation for one day (pre-emergence) or after 8 days cultivation (post-emergence) under controlled conditions in a glasshouse (at 24/16° C., day/night; 14 hours light; 65% humidity), the plants are sprayed with an aqueous spray solution derived from the formulation of the technical active ingredient in acetone/water (50:50) solution containing 0.5% Tween 20 (polyoxyethelyene sorbitan monolaurate, CAS RN 9005-64-5). Compounds are applied at […]. The test plants are then grown in a glasshouse under controlled conditions in a glasshouse (at 24/16° C., day/night; 14 hours light; 65% humidity) and watered twice daily. After 13 days for pre and post-emergence, the test is evaluated for the percentage damage caused to the plant. The biological activities are shown in the following table on a five point scale (5=80-100%; 4=60-79%; 3=40-59%; 2=20-39%; 1=0-19%).

| Structure (SMILES) | percentage damage caused to the plant, LOLPE POST |
| --- | --- |
| CC#Cc1cc(C)c(C2C(=O)CC3(CCN(C(=O)C(C)(Cl)Cl)CC3)CC2=O)c(C)c1 [Compound A27] | 5 (5=80-100%) |
| CC#Cc1cc(C)c(C2C(=O)CC3(CCN(C(=O)C(Cl)Cl)CC3)CC2=O)c(C)c1 [Compound A28] | 5 (5=80-100%) |
| CC#Cc1cc(C)c(C2C(=O)CC3(CCN(C(=O)C(F)(F)C(F)F)CC3)CC2=O)c(C)c1 [Compound A29] | 5 (5=80-100%) |

same assay, conditions: pre-emergence, 250 g/h, evaluated after 13 days, five point scale

| Structure (SMILES) | percentage damage caused to the plant, LOLPE PRE |
| --- | --- |
| CC#Cc1cc(C)c(C2C(=O)CC3(CCN(C(=O)C(C)(Cl)Cl)CC3)CC2=O)c(C)c1 [Compound A27] | 5 (5=80-100%) |
| CC#Cc1cc(C)c(C2C(=O)CC3(CCN(C(=O)C(Cl)Cl)CC3)CC2=O)c(C)c1 [Compound A28] | 5 (5=80-100%) |
| CC#Cc1cc(C)c(C2C(=O)CC3(CCN(C(=O)C(F)(F)C(F)F)CC3)CC2=O)c(C)c1 [Compound A29] | 5 (5=80-100%) |

test system: Setaria faberi (SETFA); assay: Glasshouse herbicidal test, pre- and post-emergence, Setaria faberi; assay type: in vivo; settings: post-emergence, 250 g/h, evaluated after 13 days, five point scale
Experimental: as §1

| Structure (SMILES) | percentage damage caused to the plant, SETFA POST |
| --- | --- |
| CC#Cc1cc(C)c(C2C(=O)CC3(CCN(C(=O)C(C)(Cl)Cl)CC3)CC2=O)c(C)c1 [Compound A27] | 5 (5=80-100%) |
| CC#Cc1cc(C)c(C2C(=O)CC3(CCN(C(=O)C(Cl)Cl)CC3)CC2=O)c(C)c1 [Compound A28] | 5 (5=80-100%) |
| CC#Cc1cc(C)c(C2C(=O)CC3(CCN(C(=O)C(F)(F)C(F)F)CC3)CC2=O)c(C)c1 [Compound A29] | 5 (5=80-100%) |

same assay, conditions: pre-emergence, 250 g/h, evaluated after 13 days, five point scale

| Structure (SMILES) | percentage damage caused to the plant, SETFA PRE |
| --- | --- |
| CC#Cc1cc(C)c(C2C(=O)CC3(CCN(C(=O)C(C)(Cl)Cl)CC3)CC2=O)c(C)c1 [Compound A27] | 5 (5=80-100%) |
| CC#Cc1cc(C)c(C2C(=O)CC3(CCN(C(=O)C(Cl)Cl)CC3)CC2=O)c(C)c1 [Compound A28] | 5 (5=80-100%) |
| CC#Cc1cc(C)c(C2C(=O)CC3(CCN(C(=O)C(F)(F)C(F)F)CC3)CC2=O)c(C)c1 [Compound A29] | 5 (5=80-100%) |

test system: Alopecurus myosuroides (ALOMY); assay: Glasshouse herbicidal test, pre- and post-emergence, Alopecurus myosuroides; assay type: in vivo; settings: post-emergence, 250 g/h, evaluated after 13 days, five point scale
Experimental: as §1

| Structure (SMILES) | percentage damage caused to the plant, ALOMY POST |
| --- | --- |
| CC#Cc1cc(C)c(C2C(=O)CC3(CCN(C(=O)C(C)(Cl)Cl)CC3)CC2=O)c(C)c1 [Compound A27] | 5 (5=80-100%) |
| CC#Cc1cc(C)c(C2C(=O)CC3(CCN(C(=O)C(Cl)Cl)CC3)CC2=O)c(C)c1 [Compound A28] | 5 (5=80-100%) |
| CC#Cc1cc(C)c(C2C(=O)CC3(CCN(C(=O)C(F)(F)C(F)F)CC3)CC2=O)c(C)c1 [Compound A29] | 5 (5=80-100%) |

same assay, conditions: pre-emergence, 250 g/h, evaluated after 13 days, five point scale

| Structure (SMILES) | percentage damage caused to the plant, ALOMY PRE |
| --- | --- |
| CC#Cc1cc(C)c(C2C(=O)CC3(CCN(C(=O)C(C)(Cl)Cl)CC3)CC2=O)c(C)c1 [Compound A27] | 5 (5=80-100%) |
| CC#Cc1cc(C)c(C2C(=O)CC3(CCN(C(=O)C(Cl)Cl)CC3)CC2=O)c(C)c1 [Compound A28] | 5 (5=80-100%) |
| CC#Cc1cc(C)c(C2C(=O)CC3(CCN(C(=O)C(F)(F)C(F)F)CC3)CC2=O)c(C)c1 [Compound A29] | 5 (5=80-100%) |

test system: Echinochloa crus-galli (ECHCG); assay: Glasshouse herbicidal test, pre- and post-emergence, Echinochloa crus-galli; assay type: in vivo; settings: post-emergence, 250 g/h, evaluated after 13 days, five point scale
Experimental: as §1

| Structure (SMILES) | percentage damage caused to the plant, ECHCG POST |
| --- | --- |
| CC#Cc1cc(C)c(C2C(=O)CC3(CCN(C(=O)C(C)(Cl)Cl)CC3)CC2=O)c(C)c1 [Compound A27] | 5 (5=80-100%) |
| CC#Cc1cc(C)c(C2C(=O)CC3(CCN(C(=O)C(Cl)Cl)CC3)CC2=O)c(C)c1 [Compound A28] | 5 (5=80-100%) |
| CC#Cc1cc(C)c(C2C(=O)CC3(CCN(C(=O)C(F)(F)C(F)F)CC3)CC2=O)c(C)c1 [Compound A29] | 5 (5=80-100%) |

same assay, conditions: pre-emergence, 250 g/h, evaluated after 13 days, five point scale

| Structure (SMILES) | percentage damage caused to the plant, ECHCG PRE |
| --- | --- |
| CC#Cc1cc(C)c(C2C(=O)CC3(CCN(C(=O)C(C)(Cl)Cl)CC3)CC2=O)c(C)c1 [Compound A27] | 5 (5=80-100%) |
| CC#Cc1cc(C)c(C2C(=O)CC3(CCN(C(=O)C(Cl)Cl)CC3)CC2=O)c(C)c1 [Compound A28] | 5 (5=80-100%) |
| CC#Cc1cc(C)c(C2C(=O)CC3(CCN(C(=O)C(F)(F)C(F)F)CC3)CC2=O)c(C)c1 [Compound A29] | 5 (5=80-100%) |

test system: Avena fatua (AVEFA); assay: Glasshouse herbicidal test, pre- and post-emergence, Avena fatua; assay type: in vivo; settings: post-emergence, 250 g/h, evaluated after 13 days, five point scale
Experimental: as §1

| Structure (SMILES) | percentage damage caused to the plant, AVEFA POST |
| --- | --- |
| CC#Cc1cc(C)c(C2C(=O)CC3(CCN(C(=O)C(C)(Cl)Cl)CC3)CC2=O)c(C)c1 [Compound A27] | 5 (5=80-100%) |
| CC#Cc1cc(C)c(C2C(=O)CC3(CCN(C(=O)C(Cl)Cl)CC3)CC2=O)c(C)c1 [Compound A28] | 5 (5=80-100%) |
| CC#Cc1cc(C)c(C2C(=O)CC3(CCN(C(=O)C(F)(F)C(F)F)CC3)CC2=O)c(C)c1 [Compound A29] | 5 (5=80-100%) |

same assay, conditions: pre-emergence, 250 g/h, evaluated after 13 days, five point scale

| Structure (SMILES) | percentage damage caused to the plant, AVEFA PRE |
| --- | --- |
| CC#Cc1cc(C)c(C2C(=O)CC3(CCN(C(=O)C(C)(Cl)Cl)CC3)CC2=O)c(C)c1 [Compound A27] | 5 (5=80-100%) |
| CC#Cc1cc(C)c(C2C(=O)CC3(CCN(C(=O)C(Cl)Cl)CC3)CC2=O)c(C)c1 [Compound A28] | 5 (5=80-100%) |
| CC#Cc1cc(C)c(C2C(=O)CC3(CCN(C(=O)C(F)(F)C(F)F)CC3)CC2=O)c(C)c1 [Compound A29] | 5 (5=80-100%) |
